Consider 24 compounds from patent publication US20250099448A1, “HETEROCYCLIC COMPOUNDS” (Hoffmann-La Roche Inc., priority 2022, published 2025).

For this assay, the target named is T1, MAGL protein (Homo sapiens, UniProt Q99685).
T1 sequence (Q99685 1-303): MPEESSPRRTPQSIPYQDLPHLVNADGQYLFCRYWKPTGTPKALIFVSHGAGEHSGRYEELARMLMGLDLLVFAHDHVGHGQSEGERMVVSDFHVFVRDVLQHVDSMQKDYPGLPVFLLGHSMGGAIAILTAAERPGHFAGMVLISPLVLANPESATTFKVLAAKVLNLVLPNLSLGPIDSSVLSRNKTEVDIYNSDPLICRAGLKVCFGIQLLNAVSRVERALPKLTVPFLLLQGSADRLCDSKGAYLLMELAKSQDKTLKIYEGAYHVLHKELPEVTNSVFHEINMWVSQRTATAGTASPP
Put plainly: 2-AG assay: MAGL inhibitory activity by hydrolysis of 2-arachidonoylglycerol to arachidonic acid, followed by mass spectrometry. Format: biochemical. The conditions noted are these: 8 μM 2-arachidonoylglycerol, 15 min preincubation, 30 min reaction at RT, RapidFire MS readout. In short, it runs like this:
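Activity was measured by RapidFire SPE–triple-quad MS as the ratio of arachidonic acid to d8-arachidonic acid after 2-AG hydrolysis (8 μM substrate, 30 min, RT, acetonitrile quench). Compounds, tested from 12.5 μM down to […], were first preincubated 15 min with MAGL in TRIS/EDTA/Tween-20 buffer containing 2.5% DMSO.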

For `O=C(N1CC2(CCN(S(=O)(=O)C34CC(C(F)(F)F)(C3)C4)CC2)C1)N1CC2(CC(c3nnc(C4CC4)[nH]3)C2)C1` [compound 237], the midpoint of inhibition, the IC50, lay at 17.1 nM.

For `O=C(N1CC2(CCN(S(=O)(=O)C34CC(C(F)(F)F)(C3)C4)CC2)C1)N1CC2(CC(c3nnc(C4(O)CC4)[nH]3)C2)C1` [compound 238], the half-maximal inhibitory concentration (IC50) (commonly the concentration that gives 50% inhibition) was determined as 354 nM.

With `O=C(N1CC2(CCN(S(=O)(=O)C34CC(C(F)(F)F)(C3)C4)CC2)C1)N1CC2(CC(c3nnc(C4CCC4)[nH]3)C2)C1` [compound 239], the IC50 stood at 842 nM.

Compound `O=C(N1CC2(CCN(S(=O)(=O)c3ccc(C(F)(F)F)cc3F)CC2)C1)N1CC2(CC(c3nnc(C4CC4)[nH]3)C2)C1` [compound 240] came in with an IC50 of 1.27 nM.

In turn, `O=C(N1CC(c2ccc(OC(F)(F)F)c(F)c2)C1)N1CC2(CC(c3nnc(C4CC4)[nH]3)C2)C1` [compound 241] showed a half-maximal inhibitory concentration (IC50) of 0.24 nM.

On to `O=C(N1CC(c2ccc(OC(F)(F)F)c(F)c2)C1)N1CC2(CC(c3nnc(C4(O)CC4)[nH]3)C2)C1` [compound 242], for which it took 2.23 nM to reach half-maximal inhibition (IC50).

`O=C(N1CC(c2ccc(S(=O)(=O)C(F)(F)F)cc2)C1)N1CC2(CC(c3nnc(C4CC4)[nH]3)C2)C1` [compound 243] yielded an IC50 of 0.57 nM.

`O=C(N1CC(c2ccc(CC(F)(F)F)cc2)C1)N1CC2(CC(c3nnc(C4(O)CC4)[nH]3)C2)C1` [compound 244] registered an IC50 of 7.96 nM.

As to `O=C(N1CC(c2nc(CC3(C(F)(F)F)CC3)no2)C1)N1CC2(CC(c3nnc(C4CC4)[nH]3)C2)C1` [compound 245], it took 50.2 nM to reach half-maximal inhibition (IC50).

Compound `O=C(N1CC(c2noc(C3(C(F)(F)F)CC3)n2)C1)N1CC2(CC(c3nnc(C4CC4)[nH]3)C2)C1` [compound 246] had a half-maximal inhibitory concentration (IC50) of 66.8 nM.

`CC(C)S(=O)(=O)c1ccc(C2CN(C(=O)N3CC4(CC(c5nnc(C6CC6)[nH]5)C4)C3)C2)c(Cl)c1` [compound 247] came in with a concentration for half-maximal inhibition (IC50) of 3.7 nM.

`O=C(N1CCC(NS(=O)(=O)c2ccc(C(F)(F)F)cc2)CC1)N1CC2(CC(c3nnc(C4CC4)[nH]3)C2)C1` [compound 248] displayed an IC50 of 676 nM.

`O=C(N1CCC(NS(=O)(=O)c2ccc(F)cc2)CC1)N1CC2(CC(c3nnc(C4CC4)[nH]3)C2)C1` [compound 249]: the IC50 was 1300 nM.

On to `O=C(N1CCC(CNS(=O)(=O)c2ccc(C(F)(F)F)cc2)CC1)N1CC2(CC(c3nnc(C4CC4)[nH]3)C2)C1` [compound 250], for which inhibition was half-maximal at 41.5 nM (IC50).

`O=C(N1CCC(CNS(=O)(=O)c2ccc(OC(F)(F)F)cc2)CC1)N1CC2(CC(c3nnc(C4CC4)[nH]3)C2)C1` [compound 251] returned an IC50 of 23.9 nM.

The compound `O=C(N1CCC(CNS(=O)(=O)c2ccc(Cl)cc2)CC1)N1CC2(CC(c3nnc(C4CC4)[nH]3)C2)C1` [compound 252] displayed an IC50 of 68.3 nM.

On to `O=C(N1CC(c2ccc(NCC3(C(F)(F)F)CC3)nc2)C1)N1CC2(CC(c3nnc(C4CC4)[nH]3)C2)C1` [compound 253], for which the half-maximal inhibitory concentration (IC50) came to 0.14 nM.

Turning to `O=C(N1CC(c2ccc(NCC3(C(F)(F)F)CC3)nc2)C1)N1CC2(CC(c3nnc(C4(O)CC4)[nH]3)C2)C1` [compound 254], the concentration for half-maximal inhibition (IC50) is 1.25 nM.

For the compound `O=C(N1CC(c2cnc(NCC3(C(F)(F)F)CC3)cn2)C1)N1CC2(CC(c3nnc(C4CC4)[nH]3)C2)C1` [compound 255], the IC50 was found to be 0.68 nM.

The compound `O=C(N1CC(c2ccc(NCC3(C(F)(F)F)CC3)cn2)C1)N1CC2(CC(c3nnc(C4CC4)[nH]3)C2)C1` [compound 256] displayed a 50% inhibitory concentration (IC50) of 0.78 nM.

Consider `O=C(N1CC(c2ccc(NCC3(C(F)(F)F)CC3)cc2)C1)N1CC2(CC(c3nnc(C4CC4)[nH]3)C2)C1` [compound 257], for which the IC50 was 0.08 nM.

Take `O=C(N1CC(c2ccc(N3CC(C(F)(F)F)C3)nc2)C1)N1CC2(CC(c3nnc(C4CC4)[nH]3)C2)C1` [compound 258]: the IC50 was 0.64 nM.

The compound `O=C(N1CC(c2ccc(N3CC(C(F)(F)F)C3)nc2)C1)N1CC2(CC(c3nnc(C4(O)CC4)[nH]3)C2)C1` [compound 259] registered an IC50 of 3.63 nM.

For `O=C(N1CC(c2ccc(N3CC(C(F)(F)F)C3)nc2)C1)N1CC2(CC(c3nnc(C4CCC4)[nH]3)C2)C1` [compound 260], the half-inhibitory concentration (IC50) was found to be 19.7 nM.
